Results on five compounds are retold here after patent publication US12679878B2, “CRF2 receptor agonists and their use in therapy” (SANOFI, priority 2020, dated 2026).

Where two headings read alike, the source gives them in different places. Starred links: 1 amine or outer side, 2 acyl side, 3 side chain; linkers in the order of their positions; H or OH if unused. Non-standard residues stand in square brackets, D forms with d. Residues, ends and D or L forms follow the SMILES beside them. Groups on a side chain read outwards from the residue. *: point of attachment. C18 diacid = O=C(O)CCCCCCCCCCCCCCCCC(=O)*; γGlu = O=C(O)[C@H](CCC(=O)[*:2])N[*:1]; AEEA = NCCOCCOCC(=O)O; Aib = CC(C)(N)C(=O)O

In assay [1] the target is T1, human CRF2α receptor (Homo sapiens, UniProt Q13324).
T1 construct: expressed in transfected cells; host or cells: TeloHEAC
T1 sequence (Q13324 1-411): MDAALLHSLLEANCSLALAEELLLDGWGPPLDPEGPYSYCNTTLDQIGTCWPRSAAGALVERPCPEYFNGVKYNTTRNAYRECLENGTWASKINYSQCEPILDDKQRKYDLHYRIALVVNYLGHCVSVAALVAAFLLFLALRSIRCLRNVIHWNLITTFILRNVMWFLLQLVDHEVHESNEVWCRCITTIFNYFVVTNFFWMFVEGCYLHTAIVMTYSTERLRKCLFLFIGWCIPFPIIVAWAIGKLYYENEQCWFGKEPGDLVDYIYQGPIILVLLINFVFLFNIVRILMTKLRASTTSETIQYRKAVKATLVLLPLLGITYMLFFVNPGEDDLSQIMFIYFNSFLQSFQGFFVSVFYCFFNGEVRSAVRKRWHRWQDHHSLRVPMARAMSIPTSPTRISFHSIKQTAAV
Nature of the assay: cAMP agonism at human CRF2 α receptor in TeloHEAC cells (Example 7). The assay is classed as cell-based. The settings on record: cAMP HTRF, TeloHEAC cells stably expressing human CRF2 α. In outline: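 Thawed frozen stably transfected cells in HBSS/20 mM HEPES (0% or 0.1% HSA) plus 2 mM IBMX were exposed to compound at 2000 cells/well for 30 min at room temperature. Intracellular cAMP was read by HTRF (665/620 nm ratio) after 1 h lysis; EC50 was derived with 1000 nM urocortin 2 set as 100%.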
For orientation: TR-FRET usually uses a lanthanide donor and a delayed reading to cut background.

In assay [2] the target is T2, CRF1R receptor (Homo sapiens, UniProt P34998).
T2 construct: host or cells: CHO-K1 clone 2
T2 sequence (P34998 24-415): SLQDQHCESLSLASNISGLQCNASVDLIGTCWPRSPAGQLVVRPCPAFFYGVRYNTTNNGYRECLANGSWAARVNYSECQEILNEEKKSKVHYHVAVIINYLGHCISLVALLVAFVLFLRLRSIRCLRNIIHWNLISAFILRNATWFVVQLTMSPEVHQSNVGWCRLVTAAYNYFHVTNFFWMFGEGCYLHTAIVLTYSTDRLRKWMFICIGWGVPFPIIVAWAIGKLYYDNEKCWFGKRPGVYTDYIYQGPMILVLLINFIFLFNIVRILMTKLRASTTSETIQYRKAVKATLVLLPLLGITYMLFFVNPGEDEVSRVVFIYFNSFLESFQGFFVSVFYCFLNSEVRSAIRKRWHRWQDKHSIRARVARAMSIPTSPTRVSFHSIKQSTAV
Kind of assay: cAMP activity at anti-target CRF1R, CHO-K1 cell line clone 2 (Example 19.10). The assay is classed as cell-based. The following applies: CRF1R CHO-K1 clone 2; for EC50: 0% HSA, read-out: EC50 [nM] 0% HSA; for Emax: 100% = Sauvagine at 100 nM. The method, boiled down:
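A CRF1R-overexpressing CHO-K1 line (clone 2) was grown in F12/10% FBS/G418 and frozen in aliquots before use. The cAMP assay followed the preceding procedure, with 100% activation defined by Sauvagine at 100 nM.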

The mark [3] stands for this setting: 0% HSA, read-out: EC50 [nM], 0% HSA.
Setting [4] is: 0.1% HSA, read-out: EC50 [nM], 0.1% HSA.

For the compound `CC[C@H](C)[C@H](N)C(=O)N[C@H](C(=O)N[C@@H](CC(C)C)C(=O)N[C@@H](CO)C(=O)N[C@@H](CC(C)C)C(=O)N[C@@H](CC(=O)O)C(=O)N[C@H](C(=O)N1CCC[C@H]1C(=O)N[C@H](C(=O)N[C@@H](CCCCN)C(=O)N[C@@H](CC(C)C)C(=O)N[C@@H](CCCCNC(=O)COCCOCCNC(=O)COCCOCCNC(=O)CC[C@H](NC(=O)CCCCCCCCCCCCCCCCC(=O)O)C(=O)O)C(=O)N[C@@H](CCC(N)=O)C(=O)N[C@H](C(=O)N[C@@H](CC(C)C)C(=O)N[C@@H](CC(C)C)C(=O)N[C@@H](CCCCN)C(=O)N[C@@H](CCC(N)=O)C(=O)N[C@@H](CCC(=O)O)C(=O)N[C@@H](CCCNC(=N)N)C(=O)N[C@@H](CCC(N)=O)C(=O)N[C@@H](CCCCN)C(=O)NC(C)(C)C(=O)N[C@@H](CCC(N)=O)C(=O)N[C@@H](CCCNC(=N)N)C(=O)N[C@@H](CCC(=O)O)C(=O)N[C@@H](CCCCN)C(=O)N[C@@H](C)C(=O)N[C@@H](CCC(=O)O)C(=O)N[C@@H](CCCCN)C(=O)N[C@@H](CC(N)=O)C(=O)N[C@@H](CCCCN)C(=O)N[C@@H](CCC(N)=O)C(=O)N[C@H](C(=O)N[C@@H](CC(C)C)C(=O)N[C@@H](C)C(=O)N[C@@H](CCC(N)=O)C(=O)N[C@H](C(N)=O)C(C)C)[C@@H](C)CC)[C@@H](C)CC)[C@@H](C)CC)C(C)C)C(C)C` [compound 116] (H-IVLSLDVPIKLK([AEEA-AEEA-γGlu-C18 diacid])QILLKQERQK[Aib]QREKAEKNKQILAQV-NH2; N-terminus assumed), the concentration for a half-maximal effect (EC50) (in general, the midpoint of the concentration-response curve) in assay [1] (setting [3]) came out at 0.7 nM. Moreover, in assay [2], the EC50 was more than 100 nM and the Emax – broadly, the greatest response seen or fitted, relative to the assay's reference – came to 0.8%.
In the case of `CC[C@H](C)[C@H](N)C(=O)N[C@H](C(=O)N[C@@H](CC(C)C)C(=O)N[C@@H](CO)C(=O)N[C@@H](CC(C)C)C(=O)N[C@@H](CC(=O)O)C(=O)N[C@H](C(=O)N1CCC[C@H]1C(=O)N[C@H](C(=O)N[C@@H](CCCCN)C(=O)N[C@@H](CC(C)C)C(=O)N[C@@H](CCCCNC(=O)COCCOCCNC(=O)COCCOCCNC(=O)CC[C@H](NC(=O)CCCCCCCCCCCCCCCCC(=O)O)C(=O)O)C(=O)N[C@@H](CCC(N)=O)C(=O)N[C@H](C(=O)N[C@@H](CC(C)C)C(=O)N[C@@H](CC(C)C)C(=O)N[C@@H](CCCCN)C(=O)N[C@@H](CCC(N)=O)C(=O)N[C@@H](CCC(=O)O)C(=O)N[C@@H](CCCNC(=N)N)C(=O)N[C@@H](CCC(N)=O)C(=O)N[C@@H](CCCCN)C(=O)NC(C)(C)C(=O)N[C@@H](CCC(N)=O)C(=O)N[C@@H](CCCNC(=N)N)C(=O)N[C@@H](CCC(N)=O)C(=O)N[C@@H](CCC(N)=O)C(=O)N[C@@H](C)C(=O)N[C@@H](CCC(=O)O)C(=O)N[C@@H](CCCCN)C(=O)N[C@@H](CC(N)=O)C(=O)N[C@@H](CCCCN)C(=O)N[C@@H](CCC(N)=O)C(=O)N[C@H](C(=O)N[C@@H](CC(C)C)C(=O)N[C@@H](C)C(=O)N[C@@H](CCC(N)=O)C(=O)N[C@H](C(N)=O)C(C)C)[C@@H](C)CC)[C@@H](C)CC)[C@@H](C)CC)C(C)C)C(C)C` [compound 117] (H-IVLSLDVPIKLK([AEEA-AEEA-γGlu-C18 diacid])QILLKQERQK[Aib]QRQQAEKNKQILAQV-NH2), the EC50 in assay [1] (setting [3]) is 0.11 nM; in assay [2], more than 100 nM. The Emax in assay [2] is -6%.
As for `CC[C@H](C)[C@H](N)C(=O)N[C@H](C(=O)N[C@@H](CC(C)C)C(=O)N[C@@H](CO)C(=O)N[C@@H](CC(C)C)C(=O)N[C@@H](CC(=O)O)C(=O)N[C@@H](C(=O)N1CCC[C@H]1C(=O)N[C@H](C(=O)N[C@@H](CCCCN)C(=O)N[C@@H](CC(C)C)C(=O)N[C@@H](CCCCNC(=O)COCCOCCNC(=O)COCCOCCNC(=O)CC[C@H](NC(=O)CCCCCCCCCCCCCCCCC(=O)O)C(=O)O)C(=O)N[C@@H](CCC(N)=O)C(=O)N[C@H](C(=O)N[C@@H](CC(C)C)C(=O)N[C@@H](CC(C)C)C(=O)N[C@@H](CCCCN)C(=O)N[C@@H](CCC(N)=O)C(=O)N[C@@H](CCC(=O)O)C(=O)N[C@@H](CCCNC(=N)N)C(=O)N[C@@H](CCC(N)=O)C(=O)N[C@@H](CCCCN)C(=O)NC(C)(C)C(=O)N[C@@H](CCC(N)=O)C(=O)N[C@@H](CCCNC(=N)N)C(=O)N[C@@H](CCC(N)=O)C(=O)N[C@@H](CCCCN)C(=O)N[C@@H](C)C(=O)N[C@@H](CCC(=O)O)C(=O)N[C@@H](CCCCN)C(=O)N[C@@H](CC(N)=O)C(=O)N[C@@H](CCCCN)C(=O)N[C@@H](CCC(N)=O)C(=O)N[C@H](C(=O)N[C@@H](CC(C)C)C(=O)N[C@@H](C)C(=O)N[C@@H](CCC(N)=O)C(=O)N[C@H](C(N)=O)C(C)C)[C@@H](C)CC)[C@@H](C)CC)[C@@H](C)CC)C(C)C)C(C)C` [compound 118] (H-IVLSLD[dV]PIKLK([AEEA-AEEA-γGlu-C18 diacid])QILLKQERQK[Aib]QRQKAEKNKQILAQV-NH2; N-terminus assumed), the EC50 is 0.04 nM in assay [1] (setting [3]), 2.13 nM in assay [1] (setting [4]) and more than 100 nM in assay [2]. Besides, in assay [2], the Emax amounted to 1.5%.
With `CC[C@H](C)[C@H](N)C(=O)N[C@H](C(=O)N[C@@H](CC(C)C)C(=O)N[C@@H](CO)C(=O)N[C@@H](CC(C)C)C(=O)N[C@@H](CC(=O)O)C(=O)N[C@H](C(=O)N1CCC[C@H]1C(=O)N[C@H](C(=O)N[C@@H](CCCCN)C(=O)N[C@@H](CC(C)C)C(=O)N[C@@H](CCCCNC(=O)COCCOCCNC(=O)COCCOCCNC(=O)CC[C@H](NC(=O)CCCCCCCCCCCCCCCCC(=O)O)C(=O)O)C(=O)N[C@@H](CCC(N)=O)C(=O)N[C@H](C(=O)N[C@@H](CC(C)C)C(=O)N[C@@H](CC(C)C)C(=O)N[C@@H](CCCCN)C(=O)N[C@@H](CCC(N)=O)C(=O)N[C@@H](CCC(=O)O)C(=O)N[C@@H](CCCNC(=N)N)C(=O)N[C@@H](CCC(N)=O)C(=O)N[C@@H](CCCCN)C(=O)N[C@@H](CCCCN)C(=O)NC(C)(C)C(=O)N[C@@H](CCCNC(=N)N)C(=O)N[C@@H](CCC(N)=O)C(=O)N[C@@H](CCCCN)C(=O)N[C@@H](C)C(=O)N[C@@H](CCC(=O)O)C(=O)N[C@@H](CCCCN)C(=O)N[C@@H](CC(N)=O)C(=O)N[C@@H](CCCCN)C(=O)N[C@@H](CCC(N)=O)C(=O)N[C@H](C(=O)N[C@@H](CC(C)C)C(=O)N[C@@H](C)C(=O)N[C@@H](CCC(N)=O)C(=O)N[C@H](C(N)=O)C(C)C)[C@@H](C)CC)[C@@H](C)CC)[C@@H](C)CC)C(C)C)C(C)C` [compound 119] (H-IVLSLDVPIKLK([AEEA-AEEA-γGlu-C18 diacid])QILLKQERQKK[Aib]RQKAEKNKQILAQV-NH2), the 50% effective concentration (EC50) is 0.13 nM in assay [1] (setting [3]), 4.97 nM in assay [1] (setting [4]) and more than 100 nM in assay [2]. Also, the Emax in assay [2] amounted to 0.4%.
In the same order, the values of `CC[C@H](C)[C@H](N)C(=O)N[C@H](C(=O)N[C@@H](CC(C)C)C(=O)N[C@@H](CO)C(=O)N[C@@H](CC(C)C)C(=O)N[C@@H](CC(=O)O)C(=O)N[C@H](C(=O)N1CCC[C@H]1C(=O)N[C@H](C(=O)N[C@@H](CCCCN)C(=O)N[C@@H](CC(C)C)C(=O)N[C@@H](CCCCNC(=O)COCCOCCNC(=O)COCCOCCNC(=O)CC[C@H](NC(=O)CCCCCCCCCCCCCCCCC(=O)O)C(=O)O)C(=O)N[C@@H](CCC(N)=O)C(=O)N[C@H](C(=O)N[C@@H](CC(C)C)C(=O)N[C@@H](CC(C)C)C(=O)N[C@@H](CCCCN)C(=O)N[C@@H](CCC(N)=O)C(=O)N[C@@H](CCC(=O)O)C(=O)N[C@@H](CCCNC(=N)N)C(=O)N[C@@H](CCC(N)=O)C(=O)N[C@@H](CCCCN)C(=O)N[C@@H](CCCCN)C(=O)N[C@@H](CCC(N)=O)C(=O)N[C@@H](CCCNC(=N)N)C(=O)N[C@@H](CCC(=O)O)C(=O)N[C@@H](CCCCN)C(=O)N[C@@H](C)C(=O)N[C@@H](CCC(=O)O)C(=O)N[C@@H](CCCCN)C(=O)N[C@@H](CC(N)=O)C(=O)N[C@@H](CCCCN)C(=O)N[C@@H](CCC(N)=O)C(=O)N[C@H](C(=O)N[C@@H](CC(C)C)C(=O)N[C@@H](C)C(=O)N[C@@H](CCC(N)=O)C(=O)N[C@H](C(N)=O)C(C)C)[C@@H](C)CC)[C@@H](C)CC)[C@@H](C)CC)C(C)C)C(C)C` [compound 121] (H-IVLSLDVPIKLK([AEEA-AEEA-γGlu-C18 diacid])QILLKQERQKKQREKAEKNKQILAQV-NH2) are 0.73 nM, 41.3 nM, more than 100 nM and -1.1%.
